Values joined by “and” are separate entries in the source; they are usually repeats but may differ in a detail not shown here. Equal values may be shown once.
Key:
F98 glioma cells = assay: L-[^18F]FET uptake by F98 glioma tumor cells; assay type: cell-based, rat; conditions: for uptake ratio (radioactivity uptake of cells / total added radioactivity): 10 μCi/well
Procedure: (1) In five six-well plates, put 1×10^6 F98 glioma cells and 2 ml DMEM (1 g glucose/l) into three wells.
(2) Total of five time points (2, 5, 10, 30 minute and 1 hour) in this experiment and each time point use one six-well plate.
(3) Predetermined activity of L-[^18F]FET or [^18F]FDG (10 μCi/well) is added into each well during the experiment. Radioactivity uptake of cells divided by total added radioactivity can obtain its calculated uptake ratio.
F98 glioma cells intake L-[^18F]FET rapidly and maximal accumulation will reach after 10 minutes (uptake ratio 0.47%). As cell cannot metabolize L-[^18F]FET, therefore, the rate of L-[^18F]FET transportation by the cells become balance after ten minutes when add L-[^18F]FET; the accumulation of L-[^18F]FET in glioma cells only slightly decrease after 1 hour (uptake ratio 0.41%).

[1] = tested on: F98 glioma implanted Fischer 344 rat; assay: Biological distribution of L-[^18F]FET in F98 glioma-bearing Fischer 344 rat; assay type: in vivo
Procedure: (1) Total of twenty Fischer 344 male rats will be assessed in vivo for L-[^18F]FET biological distribution. Use the intersection of bregma and sagittal midlines as original point; so as to implant F98 glioma cells (1×10^5 cells/10 μl) at the place of 3 mm left 5 mm upward and 5 mm depth. Biological distribution test will be carry out after 11˜12 days of brain tumor implantation.
(2) Different volume of radioactive level is injected, injected volume of L-[^18F]FET for each Fischer 344 rat is 200˜300 μl, that is approximately 200˜250 μCi of activity.
(3) Inject L-[^18F]FET via tail vein, and rats are sacrificed at 15, 30, 60, 90 and 120 minutes.
(4) Dissection of rat organ is right after sacrifice. Scissors off chest and abdomen fur alone the line from genital pore upward to jowl. Next, scissors off chest above xiphisternal transversely. Open ribs aside, take blood sample from venous sinus with 0.5 ml syringe. Withdraw the needle after depletion of blood and collect the extracted heart. Collect the lung lobes with forcep.
(5) Scissors off abdominal muscle from genital pore upward to the position below xiphisternal longitudinally. Then, scissors off the opening of upper and lower edges transversely, everts muscle layers to both sides and expose celiac organs. Search for bladder in lower abdomen and sequentially removes stomach, liver, spleen, small intestine, large intestine, kidney, and muscle.
(6) After turn over the rat, scissors off fur of shoulder and removes exposed subcutaneous tumor. Cut scalp upward at lower margin of cranium above foramen magnum and expose cranial bone. Then, cut cervical portion transversely at foramen magnum and expose spinal cord. Inserts foramen magnum with scissors' tip while attach the inner surface of cranium; such that scissors' tip can reach the frontal edge of cranial cavity in order to scissor off the center of cranium. Use scissors to open cranium aside and expose brain tissue. Alone skull base insert scissors deeply to the front edge of cranial cavity in order to remove left-brain, right-brain and brain tumor.
(7) Weight all organ samples; measure radioactivity with γ-counter and convert to % ID/g (% injection dose/g organ) of each organ for estimate the biological distribution of L-[^18F]FET. […] According to reports, L-[^18F]FET can pass through blood brain barrier (BBB) and enter brain by way of L amino acid transporter system. […] Tumor- to-normal brain ratio of L-[^18F]FET at 15, 30, 60, 90 and 120 minutes are 1.54, 1.74, 3.16, 3.14 and 2.34 respectively. […] Some papers reported that patient with tumor observes no significant accumulation of radioactivity in pancreas when use positron emission tomography (PET), the discrepant results were assumed that human and rat have different metabolic pathway. Furthermore, biological distribution study of L-[^18F]FET indicated radioactivity accumulation in tumor cells (expressed by % ID/g) are much higher than other normal organs (left-brain, small intestine, kidney, liver, blood and muscle) except pancreas, this means L-[^18F]FET can be a potential PET agent for substantially different site of tumor.

[2] = tested on: F98 glioma implanted Fischer 344 rat; assay: PET and microPET imaging of tumor-bearing rat with L-[^18F]FET; assay type: in vivo; conditions: 400 μCi via tail vein
Procedure: (1) Positron emission tomography (PET) studies of tumor-bearing rat (Fischer 344) with L-[^18F]FET will be carry out after 11˜12 days of brain tumor (F98 glioma) implantation.
(2) Producing processes of L-[^18F]FET as described above, and estimates its administrating amount of agent according to the level of radioactivity.
(3) At the very beginning, inject 400 μCi of L-[^18F]FET into tail vein. Temporarily anesthetize rats with ether at time of 0.5, 1, 1.5 and 2 hours. Fix rat on transparent acrylic board and place on PET table after securing stretched limbs on the board. Continuously anesthetize rats with isoflurane gas. Align implant portion of head with PET machine as to assure the fixation of original imaging position.
(4) Adjust background value by blank scan before PET imaging.
(5) Use […] radioactive source proceed transmission scan for adjust tissue attenuation.
(6) Commence PET and microPET imaging. Perform image processing after reconstruction of acquired image data; the coronal and cross section scans show in FIGS. 3 and 9. […] In contrast to tumor site, normal tissue have lower radioactivity accumulation of L-[^18F]FET because of lower amino acid requirement.

[3] = 15 min after tail vein injection, tumor-bearing rat
[4] = 30 min after tail vein injection, tumor-bearing rat
[5] = 60 min after tail vein injection, tumor-bearing rat
[6] = 90 min after tail vein injection, tumor-bearing rat
[7] = 120 min after tail vein injection, tumor-bearing rat

N[C@@H](Cc1ccc(OCC[18F])cc1)C(=O)O [L-[^18F]FET, O-(2-[^18F]fluoroethyl)-L-Tyrosine]
time to maximal accumulation in cells (F98 glioma cells): 10 min
uptake ratio (radioactivity uptake of cells / total added radioactivity) (F98 glioma cells; after 10 minutes (maximal accumulation)): 0.47%
uptake ratio (radioactivity uptake of cells / total added radioactivity) (F98 glioma cells; after 1 hour): 0.41%
accumulated radioactivity in Blood [1, 3]: 0.41 ± 0.03 % ID/g
accumulated radioactivity in Heart [1, 3]: 0.30 ± 0.06 % ID/g
accumulated radioactivity in Kidney [1, 3]: 0.33 ± 0.01 % ID/g
accumulated radioactivity in Large intestine [1, 3]: 0.21 ± 0.01 % ID/g
accumulated radioactivity in Left brain [1, 3]: 0.08 ± 0.01 % ID/g
accumulated radioactivity in Liver [1, 3]: 0.27 ± 0.06 % ID/g
accumulated radioactivity in Lung [1, 3]: 0.32 ± 0.05 % ID/g
accumulated radioactivity in Muscle [1, 3]: 0.19 ± 0.03 % ID/g
accumulated radioactivity in Pancreas [1, 3]: 0.98 % ID/g and 0.98 ± 0.25 % ID/g
accumulated radioactivity in Right brain [1, 3]: 0.07 ± 0.02 % ID/g
accumulated radioactivity in Small intestine [1, 3]: 0.23 ± 0.11 % ID/g
accumulated radioactivity in Spleen [1, 3]: 0.31 ± 0.08 % ID/g
accumulated radioactivity in Stomach [1, 3]: 0.24 ± 0.05 % ID/g
accumulated radioactivity in Tumor [1, 3]: 0.12 ± 0.02 % ID/g
Tumor-to-normal brain ratio ([1]; 15 minutes after injection): 1.54
accumulated radioactivity in Blood [1, 4]: 0.39 ± 0.03 % ID/g
accumulated radioactivity in Heart [1, 4]: 0.40 ± 0.07 % ID/g
accumulated radioactivity in Kidney [1, 4]: 0.34 ± 0.06 % ID/g
accumulated radioactivity in Large intestine [1, 4]: 0.28 ± 0.05 % ID/g
accumulated radioactivity in Left brain [1, 4]: 0.25 ± 0.05 % ID/g
accumulated radioactivity in Liver [1, 4]: 0.37 ± 0.07 % ID/g
accumulated radioactivity in Lung [1, 4]: 0.43 ± 0.09 % ID/g
accumulated radioactivity in Muscle [1, 4]: 0.28 ± 0.01 % ID/g
accumulated radioactivity in Pancreas [1, 4]: 1.76 % ID/g and 1.76 ± 0.16 % ID/g
accumulated radioactivity in Right brain [1, 4]: 0.21 ± 0.03 % ID/g
accumulated radioactivity in Small intestine [1, 4]: 0.52 ± 0.26 % ID/g
accumulated radioactivity in Spleen [1, 4]: 0.50 ± 0.11 % ID/g
accumulated radioactivity in Stomach [1, 4]: 0.36 ± 0.06 % ID/g
accumulated radioactivity in Tumor [1, 4]: 0.43 ± 0.10 % ID/g
Tumor-to-normal brain ratio ([1]; 30 minutes after injection): 1.74
accumulated radioactivity in Blood [1, 5]: 0.38 ± 0.00 % ID/g
accumulated radioactivity in Heart [1, 5]: 0.43 ± 0.07 % ID/g
accumulated radioactivity in Kidney [1, 5]: 0.41 ± 0.08 % ID/g
accumulated radioactivity in Large intestine [1, 5]: 0.42 ± 0.06 % ID/g
accumulated radioactivity in Left brain [1, 5]: 0.40 ± 0.06 % ID/g
accumulated radioactivity in Liver [1, 5]: 0.41 ± 0.06 % ID/g
accumulated radioactivity in Lung [1, 5]: 0.43 ± 0.07 % ID/g
accumulated radioactivity in Muscle [1, 5]: 0.36 ± 0.04 % ID/g
accumulated radioactivity in Pancreas [1, 5]: 2.55 % ID/g and 2.55 ± 0.31 % ID/g
accumulated radioactivity in Right brain [1, 5]: 0.34 ± 0.03 % ID/g
accumulated radioactivity in Small intestine [1, 5]: 0.65 ± 0.04 % ID/g
accumulated radioactivity in Spleen [1, 5]: 0.51 ± 0.09 % ID/g
accumulated radioactivity in Stomach [1, 5]: 0.40 ± 0.05 % ID/g
accumulated radioactivity in Tumor [1, 5]: 1.26 ± 0.22 % ID/g
Tumor-to-normal brain ratio ([1]; 60 minutes after injection): 3.16
accumulated radioactivity in Blood [1, 6]: 0.37 ± 0.03 % ID/g
accumulated radioactivity in Heart [1, 6]: 0.47 ± 0.02 % ID/g
accumulated radioactivity in Kidney [1, 6]: 0.42 ± 0.07 % ID/g
accumulated radioactivity in Large intestine [1, 6]: 0.46 ± 0.04 % ID/g
accumulated radioactivity in Left brain [1, 6]: 0.48 ± 0.14 % ID/g
accumulated radioactivity in Liver [1, 6]: 0.49 ± 0.01 % ID/g
accumulated radioactivity in Lung [1, 6]: 0.45 ± 0.02 % ID/g
accumulated radioactivity in Muscle [1, 6]: 0.44 ± 0.10 % ID/g
accumulated radioactivity in Pancreas [1, 6]: 2.28 % ID/g and 2.28 ± 0.76 % ID/g
accumulated radioactivity in Right brain [1, 6]: 0.48 ± 0.08 % ID/g
accumulated radioactivity in Small intestine [1, 6]: 0.43 ± 0.11 % ID/g
accumulated radioactivity in Spleen [1, 6]: 0.48 ± 0.11 % ID/g
accumulated radioactivity in Stomach [1, 6]: 0.43 ± 0.04 % ID/g
accumulated radioactivity in Tumor [1, 6]: 1.49 % ID/g and 1.49 ± 0.40 % ID/g
Tumor-to-normal brain ratio ([1]; 90 minutes after injection): 3.14
maximum accumulation in normal brain tissue ([1]; 90 minutes after injection, tumor-bearing rat): 0.48 % ID/g
accumulated radioactivity in Blood [1, 7]: 0.36 ± 0.03 % ID/g
accumulated radioactivity in Heart [1, 7]: 0.43 ± 0.07 % ID/g
accumulated radioactivity in Kidney [1, 7]: 0.41 ± 0.09 % ID/g
accumulated radioactivity in Large intestine [1, 7]: 0.38 ± 0.09 % ID/g
accumulated radioactivity in Left brain [1, 7]: 0.43 ± 0.09 % ID/g
accumulated radioactivity in Liver [1, 7]: 0.41 ± 0.09 % ID/g
accumulated radioactivity in Lung [1, 7]: 0.40 ± 0.06 % ID/g
accumulated radioactivity in Muscle [1, 7]: 0.37 ± 0.10 % ID/g
accumulated radioactivity in Pancreas [1, 7]: 2.24 % ID/g and 2.24 ± 0.72 % ID/g
accumulated radioactivity in Right brain [1, 7]: 0.34 ± 0.04 % ID/g
accumulated radioactivity in Small intestine [1, 7]: 0.41 ± 0.09 % ID/g
accumulated radioactivity in Spleen [1, 7]: 0.47 ± 0.04 % ID/g
accumulated radioactivity in Stomach [1, 7]: 0.41 ± 0.03 % ID/g
accumulated radioactivity in Tumor [1, 7]: 1.02 ± 0.16 % ID/g
Tumor-to-normal brain ratio ([1]; 120 minutes after injection): 2.34
time of maximum accumulation in brain tumor and normal brain tissue ([1]; biological distribution, tumor-bearing rat): 90 min
radioactivity in urine sample (excretion via urine) ([1]; tumor-bearing rat): high level of radioactivity
radioactivity accumulation in brain tumor on PET imaging ([2]; F98 glioma Fischer 344 rat): significant radioactivity accumulation in brain tumor
time of maximum uptake in brain tumor on PET imaging ([2]; imaging at 0.5, 1, 1.5 and 2 hours): 90 min

Reference: patent publication US7132563B1, “Convenient method for the preparation of no-carrier-added O-(2-[18F]fluoroethyl)-L-tyrosine)” (Institute of Nuclear Energy Research, priority 2005, dated 2006)
